Values of other authors in patent US8343565B2, “Method for producing grape extract with high ORAC value and grape extract so produced” (Ethical Naturals, Inc., priority 2008, dated 2013).

Settings: exemplary ORAC scores listed in the background

| Molecule | ORAC scores for common vegetables and fruits |
| --- | --- |
| O=C1O[C@H]([C@@H](O)CO)C(O)=C1O [vitamin C] | 5,000 μmol TE/g |
| vitamin E | 1,200 μmol TE/g |
